# Patent US20240049725A1, “CO[…] OTHER IN[…] AND USES THEREOF” (SYNGENTA CROP PROTECTION AG, priority 2020, published 2024)
# Positions of bridges follow the written chain, without caps; N, C: chain ends. Residues, ends and D or L forms follow the SMILES beside them.
# What was measured:
# Plutella xylostella L1 = assay: leaf disc spray test on Brassica chinensis, mortality of Plutella xylostella L1 larvae; type: in vivo; settings: Abbott-corrected
# Experimental: (§1) Brassica chinensis leaf discs with a 5 cm diameter were cut out and placed in a Petri dish which was prepared with 3 filter paper and 800 μl water. 100 μl of test solution was applied on the lower surface by spraying and dried to air. Next, the leaf was flipped and 100 μl of test solution was applied on the upper surface by spraying and dried to air. The leaf 3 was infested with 10 L1 larvae of Plutella xylostella, after which the dish was closed with a cotton filter and a plastic lid. The Petri dish was placed in a climate chamber at a temperature of 25° C., a relative humidity of 65% and with no artificial light cycle. Four days after infestation 150 μl water was added to the Petri dish. Three Petri dishes were assessed per treatment.
# [1] = test system: larvae of Helicoverpa armigera; settings: Jennings et al, 2005; cited from earlier work
# [2] = test system: crustaceans, cockroaches, blow fly larvae and Helicoverpa armigera; settings: in vivo; cited from earlier work
# Spodoptera littoralis L1 = assay: leaf disc spray test on Gossypium hirsutum, mortality of Spodoptera littoralis L1 larvae; type: in vivo; settings: 10000 ppm, Abbott-corrected
# Experimental: as §1, with “Gossypium hirsutum” for “Brassica chinensis”, “leaf” for “leaf 3”, “Spodoptera littoralis,” for “Plutella xylostella,”, “cycle. Two days after infestation 200 μl water was added to the Petri dish.” for “cycle.”, “500” for “150”
# Plutella xylostella L3 = assay: leaf disc spray test on Brassica chinensis, mortality of Plutella xylostella L3 larvae; type: in vivo; settings: Abbott-corrected
# Experimental: as §1, with “leaf” for “leaf 3”, “L3” for “L1”, “larvae (6-7 days old)” for “larvae”
# Cydia pomonella L1 = assay: artificial diet test in 24-well plate, mortality of Cydia pomonella L1 larvae; type: in vivo; settings: 10000 ppm; Table E; Abbott-corrected
# Experimental: An artificial diet was prepared. 1.5 ml of artificial diet was applied in a well of a 24-well plate followed by 50 μl of test solution by spraying. The well-plate was infested with 1 L1 larva of Cydia pomonella per well, after which the plate was closed with a carton filter and a metal lid. The 24-well plate was placed in a climate chamber at a temperature of 25° C., a relative humidity of 65% and with no artificial light cycle. Five wells (replicates) were assessed per treatment.
compound,measurement,setting,value
"CC[C@H](C)[C@@H]1NC(=O)[C@@H]2CCCN2C(=O)[C@H](Cc2c[nH]c3ccccc23)NC(=O)[C@H]([C@@H](C)O)NC(=O)[C@@H]2CSSC[C@@H]3NC(=O)[C@H]([C@@H](C)O)NC(=O)[C@H](CCC(=O)O)NC(=O)CNC(=O)[C@@H]4CSSC[C@H](NC(=O)CNC(=O)[C@@H]5CCCN5C(=O)[C@H]([C@@H](C)O)NC(=O)[C@H](CC(N)=O)NC(=O)[C@H](CSSC[C@H](NC1=O)C(=O)N[C@@H]([C@@H](C)O)C(=O)N[C@@H](CCCNC(=N)N)C(=O)N[C@@H](CC(=O)O)C(=O)NCC(=O)N[C@@H](CC(C)C)C(=O)N1CCC[C@H]1C(=O)N[C@@H](C(C)C)C(=O)N4)NC(=O)[C@H]([C@@H](C)O)NC(=O)CNC(=O)CNC(=O)[C@H](Cc1ccccc1)NC3=O)C(=O)N[C@@H](CO)C(=O)N2 [SEQ ID NO: 2 (kB2), Kalata B2] (cyclo(CFGGTCNTPGCSCTWPICTRDGLPVCGET); disulfide 1-13, 6-18, 11-26 (inferred); ring closure inferred)","observed mortality of Plutella xylostella L1, 1 d after infestation","Plutella xylostella L1; 157 ppm, Table B2",0%
same,"observed mortality of Plutella xylostella L1, 2 d after infestation","Plutella xylostella L1; 157 ppm, Table B2",0%
same,"observed mortality of Plutella xylostella L1, 3 d after infestation","Plutella xylostella L1; 157 ppm, Table B2",0%
same,"observed mortality of Plutella xylostella L1, 4 d after infestation","Plutella xylostella L1; 157 ppm, Table B2",0%
same,"observed mortality of Plutella xylostella L1, 7 d after infestation","Plutella xylostella L1; 157 ppm, Table B2",0%
same,"observed mortality of Plutella xylostella L1, 1 d after infestation","Plutella xylostella L1; 625 ppm, Table C",0%
same,"observed mortality of Plutella xylostella L1, 2 d after infestation","Plutella xylostella L1; 625 ppm, Table C",0%
same,"observed mortality of Plutella xylostella L1, 3 d after infestation","Plutella xylostella L1; 625 ppm, Table C",4%
same,"observed mortality of Plutella xylostella L1, 4 d after infestation","Plutella xylostella L1; 625 ppm, Table C",4%
same,"observed mortality of Plutella xylostella L1, 6 d after infestation","Plutella xylostella L1; 625 ppm, Table C",0%
same,insecticidal activity against the larvae of Helicoverpa armigera,[1],potent insecticidal activity
"CC(C)C[C@@H]1NC(=O)CNC(=O)[C@H](CC(N)=O)NC(=O)[C@H](CCCNC(=N)N)NC(=O)[C@H]([C@@H](C)O)NC(=O)[C@@H]2CSSC[C@@H]3NC(=O)[C@H]([C@@H](C)O)NC(=O)CNC(=O)CNC(=O)[C@H](C(C)C)NC(=O)[C@@H]4CSSC[C@H](NC(=O)[C@H]([C@@H](C)O)NC(=O)[C@H](CSSC[C@H](NC(=O)[C@H](C(C)C)NC(=O)[C@@H]5CCCN5C1=O)C(=O)NCC(=O)N[C@@H](CCC(=O)O)C(=O)N[C@@H]([C@@H](C)O)C(=O)N4)NC(=O)CNC(=O)[C@@H]1CCCN1C(=O)[C@H]([C@@H](C)O)NC(=O)[C@H](CC(N)=O)NC3=O)C(=O)N[C@@H](CO)C(=O)N[C@@H](Cc1c[nH]c3ccccc13)C(=O)N1CCC[C@H]1C(=O)N[C@@H](CCCCN)C(=O)N2 [SEQ ID NO: 6 (kB1[V25K]), Mutated kB1 (kB1[V25K])] (cyclo(CGETCVGGTCNTPGCTCSWPKCTRNGLPV); disulfide 1-15, 5-17, 10-22 (inferred); ring closure inferred)","observed mortality of Plutella xylostella L1, 1 d after infestation","Plutella xylostella L1; 625 ppm, Table C",0%
same,"observed mortality of Plutella xylostella L1, 2 d after infestation","Plutella xylostella L1; 625 ppm, Table C",0%
same,"observed mortality of Plutella xylostella L1, 3 d after infestation","Plutella xylostella L1; 625 ppm, Table C",0%
same,"observed mortality of Plutella xylostella L1, 4 d after infestation","Plutella xylostella L1; 625 ppm, Table C",0%
same,"observed mortality of Plutella xylostella L1, 6 d after infestation","Plutella xylostella L1; 625 ppm, Table C",0%
"CC(C)[C@H](NC(=O)[C@H](CCCCN)NC(=O)[C@@H]1CCCN1C(=O)CNC(=O)[C@H](CO)NC(=O)[C@@H]1CSSC[C@@H]2NC(=O)[C@@H]3CCCN3C(=O)[C@@H]3CSSC[C@H](NC(=O)CNC(=O)CNC(=O)[C@H](Cc4c[nH]c5ccccc45)NC(=O)[C@H](Cc4ccc(O)cc4)NC2=O)C(=O)N2CCC[C@H]2C(=O)N[C@@H](Cc2c[nH]c4ccccc24)C(=O)NCC(=O)N[C@@H](CCC(N)=O)C(=O)N[C@@H](CC(N)=O)C(=O)N[C@@H](CSSC[C@H](NC(=O)[C@H](CO)NC(=O)[C@@H](N)CCCNC(=N)N)C(=O)N3)C(=O)N[C@@H](Cc2ccc(O)cc2)C(=O)N2CCC[C@H]2C(=O)N[C@@H](CCC(=O)O)C(=O)NCC(=O)N1)C(=O)O [SEQ ID NO: 4 (Av3), Av3]","toxicity to crustaceans, cockroaches, blow fly larvae and Helicoverpa armigera",[2],toxic
"CC(C)C[C@@H]1NC(=O)CNC(=O)[C@H](CC(N)=O)NC(=O)[C@H](CCCNC(=N)N)NC(=O)[C@H]([C@@H](C)O)NC(=O)[C@@H]2CSSC[C@@H]3NC(=O)[C@H]([C@@H](C)O)NC(=O)CNC(=O)CNC(=O)[C@H](C(C)C)NC(=O)[C@@H]4CSSC[C@H](NC(=O)[C@H]([C@@H](C)O)NC(=O)[C@H](CSSC[C@H](NC(=O)[C@H](C(C)C)NC(=O)[C@@H]5CCCN5C1=O)C(=O)NCC(=O)N[C@@H](CCC(=O)O)C(=O)N[C@@H]([C@@H](C)O)C(=O)N4)NC(=O)CNC(=O)[C@@H]1CCCN1C(=O)[C@H]([C@@H](C)O)NC(=O)[C@H](CC(N)=O)NC3=O)C(=O)N[C@@H](CO)C(=O)N[C@@H](Cc1c[nH]c3ccccc13)C(=O)N1CCC[C@H]1C(=O)N[C@@H](C(C)C)C(=O)N2 [SEQ ID NO: 1 (kB1), Kalata B1]","observed mortality of Spodoptera littoralis L1, 1 d after infestation",Spodoptera littoralis L1; Table A,0%
same,"observed mortality of Spodoptera littoralis L1, 2 d after infestation",Spodoptera littoralis L1; Table A,35%
same,"observed mortality of Spodoptera littoralis L1, 3 d after infestation",Spodoptera littoralis L1; Table A,29%
same,"observed mortality of Spodoptera littoralis L1, 6 d after infestation",Spodoptera littoralis L1; Table A,32%
same,"observed mortality of Spodoptera littoralis L1, 1 d after infestation",Spodoptera littoralis L1; Table G,5%
same,"observed mortality of Spodoptera littoralis L1, 2 d after infestation",Spodoptera littoralis L1; Table G,25%
same,"observed mortality of Spodoptera littoralis L1, 3 d after infestation",Spodoptera littoralis L1; Table G,36%
same,"observed mortality of Plutella xylostella L1, 1 d after infestation","Plutella xylostella L1; 625 ppm, Table B1",0%
same,"observed mortality of Plutella xylostella L1, 2 d after infestation","Plutella xylostella L1; 625 ppm, Table B1",0%
same,"observed mortality of Plutella xylostella L1, 3 d after infestation","Plutella xylostella L1; 625 ppm, Table B1",3%
same,"observed mortality of Plutella xylostella L1, 4 d after infestation","Plutella xylostella L1; 625 ppm, Table B1",14%
same,"observed mortality of Plutella xylostella L1, 7 d after infestation","Plutella xylostella L1; 625 ppm, Table B1",17%
same,"observed mortality of Plutella xylostella L1, 1 d after infestation","Plutella xylostella L1; 625 ppm, Table C",0%
same,"observed mortality of Plutella xylostella L1, 2 d after infestation","Plutella xylostella L1; 625 ppm, Table C",11%
same,"observed mortality of Plutella xylostella L1, 3 d after infestation","Plutella xylostella L1; 625 ppm, Table C",9%
same,"observed mortality of Plutella xylostella L1, 4 d after infestation","Plutella xylostella L1; 625 ppm, Table C",22%
same,"observed mortality of Plutella xylostella L1, 6 d after infestation","Plutella xylostella L1; 625 ppm, Table C",20%
same,"observed mortality of Plutella xylostella L3, 1 d after infestation","Plutella xylostella L3; 2500 ppm, Table D",0%
same,"observed mortality of Plutella xylostella L3, 2 d after infestation","Plutella xylostella L3; 2500 ppm, Table D",0%
same,"observed mortality of Plutella xylostella L3, 3 d after infestation","Plutella xylostella L3; 2500 ppm, Table D",3%
same,"observed mortality of Plutella xylostella L3, 4 d after infestation","Plutella xylostella L3; 2500 ppm, Table D",20%
same,"observed mortality of Plutella xylostella L3, 1 d after infestation","Plutella xylostella L3; 5000 ppm, Table D",0%
same,"observed mortality of Plutella xylostella L3, 2 d after infestation","Plutella xylostella L3; 5000 ppm, Table D",0%
same,"observed mortality of Plutella xylostella L3, 3 d after infestation","Plutella xylostella L3; 5000 ppm, Table D",3%
same,"observed mortality of Plutella xylostella L3, 4 d after infestation","Plutella xylostella L3; 5000 ppm, Table D",37%
same,"observed mortality of Plutella xylostella L3, 1 d after infestation","Plutella xylostella L3; 5000 ppm, Table F",0%
same,"observed mortality of Plutella xylostella L3, 2 d after infestation","Plutella xylostella L3; 5000 ppm, Table F",0%
same,"observed mortality of Plutella xylostella L3, 3 d after infestation","Plutella xylostella L3; 5000 ppm, Table F",22%
same,"observed mortality of Cydia pomonella L1, 1 d after infestation",Cydia pomonella L1,20%
same,"observed mortality of Cydia pomonella L1, 2 d after infestation",Cydia pomonella L1,20%
same,"observed mortality of Cydia pomonella L1, 3 d after infestation",Cydia pomonella L1,20%
same,"observed mortality of Cydia pomonella L1, 4 d after infestation",Cydia pomonella L1,20%
same,"observed mortality of Cydia pomonella L1, 7 d after infestation",Cydia pomonella L1,20%
same,insecticidal activity against the larvae of Helicoverpa armigera,[1],potent insecticidal activity
